Assay results from patent US6342601B1, “Compounds” (AstraZeneca AB, priority 1997, dated 2002).
Where a name gives a salt, the structure may show the parent alone.

First: CC(C)Cc1nn(C)c(=O)c2cc(C(O)c3cccc4ccccc34)sc12 (stereo not drawn) [Example 6, 2-[1-Hydroxy-1-(1-naphthalenyl)methyl]-5-methyl-7-(2-methylpropyl)thieno[2,3-d]pyridazin-4(5H)-one]
Second: CC(C)Cc1nn(C)c(=O)c2cc(C(O)c3cccc4ccccc34)oc12 (stereo not drawn) [Example 35, 2-[1-Hydroxy-1-(1-naphthalenyl)methyl]-5-methyl-7-(2-methylpropyl)furo[2,3-d]pyridazin-4(5H)one]
The melting point of the first is higher: 165 to 167 °C for the first, 110 to 112 °C for the second.

Compared with `CC(C)Cc1nn(C)c(=O)c2cc(Cc3ccccc3)sc12` [Example 15, 5-Methyl-7-(2-methylpropyl)-2-phenylmethylthieno[2,3-d]pyridazin-4(5H)-one], `CC(C)Cc1nn(C)c(=O)c2cc(Cc3cccnc3)sc12` [Example 41, 5Methyl-7-(2-methylpropyl)-2-(3-pyridinylmethyl)thieno[2,3-d]pyridazin-4(5H)-one] is higher in melting point: 97 to 98 °C for the first, 118 to 119 °C for the second.

Compared with `CC(C)Cc1nn(C)c(=O)c2cc(Cc3ccccc3C(F)(F)F)sc12` [Example 39, 2-(2-Trifluoromethylphenyl)methyl-5-methyl-7-(2-methylpropyl)thieno[2,3-d]pyridazin-4(5H)-one], `CC(C)Cc1nn(C)c(=O)c2cc(Cc3c(F)cccc3Cl)sc12` [Example 42, 2-(2-Chloro-6-fluorophenyl)methyl-5-methyl-7-(2-methylpropyl)thieno[2,3-d]pyridazin-4(5H)-one] is lower in melting point: 112 to 114 °C for the first, 85 to 86 °C for the second.

First: CC(C)Cc1nn(C)c(=O)c2c(SCCCC(=O)O)n(Cc3cccc4ccccc34)cc12 [Example 4, 4-{[2,6-Dihydro-2-methyl-4-(2-methylpropyl)-6-(1-naphthalenylmethyl)-1-oxo-1H-pyrrolo[3,4-d]pyridazin-7-yl]thio}butanoic Acid]
Second: CC(C)Cc1nn(C)c(=O)c2c(SCCCC(=O)O)c(Cc3cccc4ccccc34)sc12 [Example 11, 4-{[4,5-Dihydro-5-methyl-7-(2-methylpropyl)-2-(1-naphthalenylmethyl)-4-oxothieno[2,3-d]pyridazin-3-yl]thio}butanoic Acid]
The melting point of the first is higher: 167 °C for the first, 154 to 156 °C for the second.

First: COc1cc(Cn2cc3c(CC(C)C)nn(C)c(=O)c3c2)cc(OC)c1OC [Example 21, 2,6-Dihydro-2-methyl-4-(2-methylpropyl)-6-(3,4,5-trimethoxyphenyl)methyl-1H-pyrrolo[3,4-d]pyridazin-1-one]
Second: CC(C)Cc1nn(C)c(=O)c2cn(Cc3ccncc3)cc12 [Example 23, 2,6-Dihydro-2-methyl-4-(2-methylpropyl)-6-(4-pyridinyl)methyl-1H-pyrrolo[3,4-d]pyridazin-1-one]
The melting point of the first is higher: 154.5 to 155 °C for the first, 91 to 93 °C for the second.

First: CC(C)Cc1nn(C)c(=O)c2c(Sc3ccccn3)n(Cc3ccccc3)cc12 [Example 19, 2,6-Dihydro-2-methyl-4-(2-methylpropyl)-6-phenylmethyl-7-(2-pyridinylthio)-1H-pyrrolo[3,4-d]pyridazin-1-one]
Second: CC(C)Cc1nn(C)c(=O)c2c(SCCCO)n(Cc3ccccc3)cc12 [Example 20, 2,6-Dihydro-7-[(3-hydroxypropyl)thio]-2-methyl-4-(2-methylpropyl)-6-phenylmethyl-1H-pyrrolo[3,4-d]pyridazin-1-one]
The melting point of the first is higher: 131 to 132 °C for the first, 91 to 92 °C for the second.

Compared with `CC(C)Cc1nn(C)c(=O)c2cn(Cc3ccccc3)cc12` [Example 18, 2,6-Dihydro-2-methyl-4-(2-methylpropyl)-6-phenylmethyl-1H-pyrrolo[3,4-d]pyridazin-1-one], `CC(C)Cc1nn(C)c(=O)c2cn(Cc3cccc4ccccc34)cc12` [Example 1, 2,6-Dihydro-2-methyl-4-(2-methylpropyl)-6-(1-naphthalenylmethyl)-1H-pyrrolo[3,4-d]pyridazin-1-one] is higher in melting point: 104 °C for the first, 110 to 112 °C for the second.

Compared with `CC(C)Cc1nn(C)c(=O)c2cc(Cc3cccc4ccccc34)oc12` [Example 36, 5-Methyl-7-(2-methylpropyl)-2-(1-naphthalenylmethyl)furo[2,3-d]pyridazin-4(5H)one], `CC(C)Cc1nn(C)c(=O)c2nn(Cc3cccc4ccccc34)cc12` [Example 33] is higher in melting point: 73 to 75 °C for the first, 163 to 164 °C for the second.

Compared with `COCCn1nc(CC(C)C)c2cn(Cc3cccc4ccccc34)cc2c1=O` [Example 2, 2,6-Dihydro-2-(2-methoxyethyl)-4-(2-methylpropyl)-6-(1-naphthalenylmethyl)-1H-pyrrolo[3,4-d]pyridazin-1-one], `CC(C)Nc1nn(C)c(=O)c2cn(Cc3cccc4ccccc34)cc12` [Example 22, 2,6-Dihydro-2-methyl-6-(1-naphthalenylmethyl)-4-(1-methylethyl)amino-1H-pyrrolo[3,4-d]pyridazin-1-one] is higher in melting point: 96 to 98 °C for the first, 221 to 222 °C for the second.

Compared with `CC(C)Cc1nn(C)c(=O)c2c([S+]([O-])CCCO)c(Cc3cccc4ccccc34)sc12` (stereo not drawn) [Example 10, 3[(3-Hydroxypropyl)sulfinyl]-5-methyl-7-(2-methylpropyl)-2-(1-naphthalenylmethyl)thieno[2,3-d]pyridazin-4(5H)-one], `CC(C)Cc1nn(C)c(=O)c2c(S(=O)(=O)CCCO)c(Cc3cccc4ccccc34)sc12` [Example 13, 3-[(3-Hydroxypropyl)sulfonyl]-5-methyl-7-(2-methylpropyl)-2-(1-naphthalenylmethyl)thieno[2,3-d]pyridazin-4(5H)-one] is higher in melting point: 60 to 65 °C for the first, 160 to 163 °C for the second.

First: CC(C)Cc1nn(C)c(=O)c2cc(C(O)c3cccc(C#N)c3)oc12 (stereo not drawn) [Example 37, 2-[1-Hydroxy-1-(3-cyanophenyl)methyl]-5-methyl-7-(2-methylpropyl)furo[2,3-d]pyridazin4(5H)one]
Second: CC(C)Cc1nn(C)c(=O)c2cc(Cc3cccc(C#N)c3)oc12 [Example 38, 2-(3-Cyanophenyl)methyl-5-methyl-7-(2-methylpropyl)furo[2,3-d]pyridazin-4(5H)one]
The melting point of the first is higher: 106 to 108 °C for the first, 76 to 78 °C for the second.

Compared with `CC(C)Cc1nn(C)c(=O)c2c(S(=O)(=O)CCCO)c(Cc3ccccc3)sc12` [Example 17, 3-[(3-Hydroxypropyl)sulfonyl]-5-methyl-7-(2-methylpropyl)-2-phenylmethylthieno[2,3-d]pyridazin-4(5H)-one], `CC(C)Cc1nn(C)c(=O)c2c(SCCCO)c(Cc3ccccc3)sc12` [Example 16, 3-[(3-Hydroxypropy)thio]-5-methyl-7-(2-methylpropyl)-2-phenylmethylthieno[2,3-d]pyridazin-4(5H)-one] is lower in melting point: 105 to 107 °C for the first, 60 to 65 °C for the second.

First: CC(C)Cc1nn(C)c(=O)c2c([S+]([O-])CCCO)n(Cc3cccc4ccccc34)cc12 (stereo not drawn) [Example 5 (A), 2,6-Dihydro-7-[(3-hydroxypropyl)sulfinyl]-2-methyl-4-(2-methylpropyl)-6-(1-naphthalenylmethyl)-1H-pyrrolo[3,4-d]pyridazin-1-one]
Second: CC(C)Cc1nn(C)c(=O)c2c(SCCCO)n(Cc3cccc4ccccc34)nc12 [Example 34, 2,5-Dihydro-3-[(3-hydoxypropyl)thio]-5-methyl-7-(2-methylpropyl)-2-(1-naphthalenylmethyl)-4H-pyrazolo[3,4-d]pyridazin-4-one]
The melting point of the first is higher: 164 to 166 °C for the first, 141 to 142 °C for the second.

Compared with `CC(C)Cc1nn(C)c(=O)c2cn(Cc3cccc4ccccc34)nc12` [Example 32, 2,5-Dihydro-5-methyl-7-(2-methylpropyl)-2-(1-naphthalenylmethyl)-4H-pyrazolo[3,4-d]pyridazin-4-one], `CC(C)Cc1nn(C)c(=O)c2cc(C(=O)c3cccc4ccccc34)sc12` [Example 9, 5-Methyl-7-(2-methylpropyl)-2-(1-naphthalenylcarbonyl)thieno[2,3-d]pyridazin-4(5H)-one] is lower in melting point: 166 to 167 °C for the first, 121 °C for the second.

`CC(C)Cc1nn(C)c(=O)c2cc(C(O)c3cccnc3)sc12` (stereo not drawn) (as salt: hydrochloride) [Example 40, 2-[(1-Hydroxy-1-pyridin-3-yl)methyl]-5-methyl-7-(2-methylpropyl)thieno[2,3-d]pyridazin-4(5H)-one Hydrochloride] showed a melting point of 154 to 156 °C.

In the case of `CC(C)Cc1nn(C)c(=O)c2cc(Cc3cnc4ccccc4c3)sc12` (as salt: hydrochloride) [Example 44, 5-Methyl-7-(2-methylpropyl)-2-(3-quinolinylmethyl)thieno[2,3-d]pyridazin-4(5H)-one Hydrochloride], the melting point is reported as > 230 °C (dec.).
